# Experimental data as given in ChEMBL document CHEMBL1201862, “PubChem BioAssay data set” (2004).
#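 Compound exposure: 48 hours, 5 concentrations, 96-well plates. GI50 = concentration required for 50% inhibition of growth.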 The source made the active and inactive calls. Cut-off read from the data, not from the text of the source: active = GI50 up to about 1.1 µM and inactive = higher.
# What was measured:
# Assay in all cases: growth of human tumour cells (NCI), 48 h
# [1] = tested on: 786-0
# [2] = tested on: A498
# [3] = tested on: A549
# [4] = tested on: ACHN
# [5] = tested on: BT-549
# [6] = tested on: CAKI-1
# [7] = tested on: COLO 205
# [8] = tested on: DU-145
# [9] = tested on: EKVX
# [10] = tested on: HCC 2998
# [11] = tested on: HCT-116
# [12] = tested on: HCT-15
# [13] = tested on: HL-60
# [14] = tested on: HOP-62
# [15] = tested on: HOP-92
# [16] = tested on: HT-29
# [17] = tested on: Hs-578T
# [18] = tested on: IGROV-1
# [19] = tested on: K562
# [20] = tested on: KM12
# [21] = tested on: LOX IMVI
# [22] = tested on: M14
# [23] = tested on: MCF7
# [24] = tested on: MDA-MB-231
# [25] = tested on: MDA-MB-435
# [26] = tested on: MDA-N
# [27] = tested on: MOLT-4
# [28] = tested on: Malme-3M
# [29] = tested on: NCI-H226
# [30] = tested on: NCI-H23
# [31] = tested on: NCI-H460
# [32] = tested on: NCI-H522
# [33] = tested on: NCI/ADR-RES
# [34] = tested on: OVCAR-3
# [35] = tested on: OVCAR-4
# [36] = tested on: OVCAR-5
# [37] = tested on: OVCAR-8
# [38] = tested on: PC-3
# [39] = tested on: RPMI-8226
# [40] = tested on: RXF 393
# [41] = tested on: SF-268
# [42] = tested on: SF-295
# [43] = tested on: SF-539
# [44] = tested on: SK-MEL-28
# [45] = tested on: SK-MEL-2
# [46] = tested on: SK-MEL-5
# [47] = tested on: SK-OV-3
# [48] = tested on: SN12C
# [49] = tested on: SNB-19
# [50] = tested on: SNB-75
# [51] = tested on: SR
# [52] = tested on: SW-620
# [53] = tested on: T47D
# [54] = tested on: TK-10
# [55] = tested on: U-251
# [56] = tested on: UACC-257
# [57] = tested on: UACC-62
# [58] = tested on: UO-31
# [59] = tested on: CCRF-CEM
structure (smiles),measurement,setting,value
CC1(C)N=C(N)N=C(N)N1c1cccc(CSc2ccccc2)c1,GI50,[1],0.0929 µM (active)
same,GI50,[2],> 100 µM (inactive)
same,GI50,[3],0.0301 µM (active)
same,GI50,[4],34.4 µM (inactive)
same,GI50,[5],15.9 µM (inactive)
same,GI50,[6],23.6 µM (inactive)
same,GI50,[7],0.794 µM (active)
same,GI50,[8],0.592 µM (active)
same,GI50,[9],23 µM (inactive)
same,GI50,[10],73.1 µM (inactive)
same,GI50,[11],0.0588 µM (active)
same,GI50,[12],50.4 µM
same,GI50,[13],< 0.01 µM (active)
same,GI50,[14],6.4 µM (inactive)
same,GI50,[15],32 µM (inactive)
same,GI50,[16],0.0791 µM (active)
same,GI50,[17],2.83 µM (inactive)
same,GI50,[18],0.0301 µM (active)
same,GI50,[19],0.774 µM (active)
same,GI50,[20],0.718 µM (active)
same,GI50,[21],0.103 µM (active)
same,GI50,[22],0.346 µM (active)
same,GI50,[23],0.597 µM (active)
same,GI50,[24],> 100 µM (inactive)
same,GI50,[25],0.0813 µM (active)
same,GI50,[26],0.037 µM (active)
same,GI50,[27],141 nM (active)
same,GI50,[28],8.89 µM (inactive)
same,GI50,[29],0.916 µM (active)
same,GI50,[30],0.619 µM (active)
same,GI50,[31],0.0404 µM (active)
same,GI50,[32],0.318 µM (active)
same,GI50,[33],> 100 µM (inactive)
same,GI50,[34],0.991 µM (active)
same,GI50,[35],2.29 µM (inactive)
same,GI50,[36],52.1 µM (inactive)
same,GI50,[37],3.16 µM (inactive)
same,GI50,[38],3.73 µM (inactive)
same,GI50,[39],0.944 µM (active)
same,GI50,[40],0.169 µM (active)
same,GI50,[41],0.0363 µM (active)
same,GI50,[42],1.1 µM (active)
same,GI50,[43],0.461 µM (active)
same,GI50,[44],0.805 µM (active)
same,GI50,[45],18.4 µM (inactive)
same,GI50,[46],0.212 µM (active)
same,GI50,[47],95.3 µM (inactive)
same,GI50,[48],0.0838 µM (active)
same,GI50,[49],0.218 µM (active)
same,GI50,[50],4.42 µM (inactive)
same,GI50,[51],< 0.01 µM (active)
same,GI50,[52],7.59 µM (inactive)
same,GI50,[53],12.9 µM (inactive)
same,GI50,[54],78.7 µM (inactive)
same,GI50,[55],0.045 µM (active)
same,GI50,[56],3.85 µM (inactive)
same,GI50,[57],0.192 µM (active)
same,GI50,[58],> 100 µM (inactive)
O=S(=O)(O)c1cc(/N=[N+](\[O-])c2cc(S(=O)(=O)O)c3ccccc3c2)cc2ccccc12,GI50,[1],> 100 µM (inactive)
same,GI50,[2],> 100 µM (inactive)
same,GI50,[3],> 100 µM (inactive)
same,GI50,[4],> 100 µM (inactive)
same,GI50,[5],19.5 µM (inactive)
same,GI50,[6],23.1 µM (inactive)
same,GI50,[59],29.7 µM (inactive)
same,GI50,[7],> 100 µM (inactive)
same,GI50,[8],19.5 µM (inactive)
same,GI50,[9],39.4 µM (inactive)
same,GI50,[10],> 100 µM (inactive)
same,GI50,[11],> 100 µM (inactive)
same,GI50,[12],> 100 µM
same,GI50,[13],30 µM (inactive)
same,GI50,[14],48 µM (inactive)
same,GI50,[15],> 100 µM (inactive)
same,GI50,[16],> 100 µM (inactive)
same,GI50,[17],33.5 µM (inactive)
same,GI50,[18],33.9 µM (inactive)
same,GI50,[19],30.7 µM (inactive)
same,GI50,[20],> 100 µM (inactive)
same,GI50,[21],25.2 µM (inactive)
same,GI50,[22],35.7 µM (inactive)
same,GI50,[23],30.1 µM (inactive)
same,GI50,[24],> 100 µM (inactive)
same,GI50,[25],> 100 µM (inactive)
same,GI50,[26],20 µM (inactive)
same,GI50,[28],45.5 µM (inactive)
same,GI50,[29],> 100 µM (inactive)
same,GI50,[30],25.5 µM (inactive)
same,GI50,[31],> 100 µM (inactive)
same,GI50,[32],26.2 µM (inactive)
same,GI50,[33],> 100 µM (inactive)
same,GI50,[34],12.4 µM (inactive)
same,GI50,[35],20.5 µM (inactive)
same,GI50,[36],32.5 µM (inactive)
same,GI50,[37],> 100 µM (inactive)
same,GI50,[38],> 100 µM (inactive)
same,GI50,[39],28.1 µM (inactive)
same,GI50,[40],43.5 µM (inactive)
same,GI50,[41],> 100 µM (inactive)
same,GI50,[42],35.6 µM (inactive)
same,GI50,[43],16.8 µM (inactive)
same,GI50,[44],> 100 µM (inactive)
same,GI50,[45],24.7 µM (inactive)
same,GI50,[46],17.9 µM (inactive)
same,GI50,[47],> 100 µM (inactive)
same,GI50,[48],23.6 µM (inactive)
same,GI50,[49],46.7 µM (inactive)
same,GI50,[50],16.3 µM (inactive)
same,GI50,[51],38.5 µM (inactive)
same,GI50,[52],31.8 µM (inactive)
same,GI50,[53],> 100 µM (inactive)
same,GI50,[54],> 100 µM (inactive)
same,GI50,[55],60.4 µM (inactive)
same,GI50,[56],51.1 µM (inactive)
same,GI50,[57],> 100 µM (inactive)
same,GI50,[58],20.9 µM (inactive)
